Experimental data: patent US6352709B1, “Localized use of nitric oxide-adducts to prevent internal tissue damage” (NitroMed, Inc., priority 1993, dated 2002)

Assays:
[1] = system: balloon-injured rabbit femoral artery; assay: [125I]-S-NO-BSA binding to balloon-injured femoral artery; format: in vivo
Experimental: Rabbit femoral arteries were isolated and balloon-injured as described in Example 1 and [^125I]-S-NO-BSA applied either directly into the injured artery (local) or injected intraarterially via the opposite femoral artery (systemic). [^125I]-S-NO-BSA binding was determined by quantification of radioactivity after flow was reestablished for a period of 15 minutes. Non-specific [^125I]-S-NO-BSA binding (sham) was determined from uninjured carotid artery harvested simultaneously with femoral arteries. Data are presented as mean +/− SEM per gram of wet tissue weight, and are derived from four animals. *P<0.0.029, local vs. systemic delivery and +/+P<0.05, systemic injured vs. sham.
Preparation of [^125I]-labeled S-NO-BSA and [^111In] labeled platelets: BSA (0.1 mg/ml) was combined with two IODO-BEADS and 0.1 mCi of Na[^125I]. The solution was incubated for 45 minutes and unincorporated Na[^125I] was removed by gel filtration with Sephadex G25 equilibrated with TBS containing 0.1 mg/ml BSA. […] [^111In]-labeling of platelets was performed after the method of Wistow and colleagues.^(17)
(§1) Animal Preparation: All animal preparations were performed within the institutional guidelines of the Brockton/West Roxbury Department of Veteran Affairs Medical Center and Boston University Medical Center, and in accordance with the guiding principles of the American Physiological Society. New Zealand white rabbits (3.5-4.2 kg) of either sex were premedicated with 5 mg/kg intramuscular (IM) xylazine hydrochlolide (Miles Pharmaceuticals, Shawnee Mission, Kans.), and 0.1 mg/kg subcutaneous (SC) atropine sulfate (Lyphomed, Deerfield, Ill.) fifteen minutes prior to the induction of anesthesia. Anesthesia was induced with 40 mg/kg IM ketamine hydrochloride (Fort Dodge Laboratories, Fort Dodge, Ind.) and 5 mg/kg IM acepromazine maleate (Aveco Company, Inc., Fort Dodge, Ind.). Additional doses of ketamine hydrochloride were administered as necessary to maintain anesthesia. For survival studies, 100,000 U penicillin G (Apothecon of Bristol-Myers Squibb, Princeton, N.J.), was administered IM perioperatively. […]

[2] = system: [^111In]-labeled platelets; assay: [111In]-labeled platelet binding to balloon-injured femoral arteries; format: in vivo, rabbit; settings: for adhesion of [^111In]-labelled platelets to injured vessels: local administration 15 minutes, 15 minutes recirculation, n=6
Experimental: Femoral arteries were isolated and balloon injured as described in Example 1. During paired local administration of polythiolated S-nitroso-albumin and polythiolated albumin, [^111In]-labeled platelets were administered intravenously and allowed to circulate after flow was reestablished in the treated arteries. [^111In]-labeled platelet binding was determined by quantification of radioactivity after flow was re-established for a period of 15 minutes. Non-specific [^111In]-labeled platelet binding (Uninjured Carotid Artery) was determined from uninjured carotid artery harvested with femoral arteries. Data are presented as mean +/− SEM per gram of wet tissue weight and are derived from six animals. *P<0.05, PS-BSA vs. pS-NO-BSA.
as §1, with “perioperatively. The skin over the femoral arteries was next infiltrated with 1% lidocaine (Astra Pharmaceuticals, Inc., Westborough, Mass.) and the common femoral arteries were exposed from the inguinal ligament to the superficial femoral artery.” for “perioperatively.”

[3] = system: balloon-injured rabbit femoral artery; assay: Neointimal proliferation after balloon injury of femoral artery (morphometry); format: in vivo
Experimental: Femoral arteries were isolated and balloon injured as described below. pS-BSA or pS-NO-BSA were applied in a paired fashion directly into the arterial lumen for 15 minutes and then blood flow was re-established. […] Neointimal proliferation is reported as the absolute neointimal area in FIG. 5A and as a ratio of neointima/media in FIG. 5B in 4-6 segments from each artery. Data are expressed as mean +/− SEM and are derived from 15 vessels in the BSA and S-NO-BSA groups, 11 vessels in the PS-BSA group, 7 vessels in the PS-NO-BSA and SHAM groups, and 5 in the SNP group. *P<0.05, pS-NO-BSA vs. PS-BSA. +/+P<0.05 Sodium nitroprusside vs. pS-BSA for both FIGS. 5A and 5B.
Animal Preparation: All animal preparations were performed within the institutional guidelines of the Brockton/West Roxbury Department of Veteran Affairs Medical Center and Boston University Medical Center, and in accordance with the guiding principles of the American Physiological Society. New Zealand white rabbits (3.5-4.2 kg) of either sex were premedicated with 5 mg/kg intramuscular (IM) xylazine hydrochlolide (Miles Pharmaceuticals, Shawnee Mission, Kans.), and 0.1 mg/kg subcutaneous (SC) atropine sulfate (Lyphomed, Deerfield, Ill.) fifteen minutes prior to the induction of anesthesia. Anesthesia was induced with 40 mg/kg IM ketamine hydrochloride (Fort Dodge Laboratories, Fort Dodge, Ind.) and 5 mg/kg IM acepromazine maleate (Aveco Company, Inc., Fort Dodge, Ind.). Additional doses of ketamine hydrochloride were administered as necessary to maintain anesthesia. For survival studies, 100,000 U penicillin G (Apothecon of Bristol-Myers Squibb, Princeton, N.J.), was administered IM perioperatively. The skin over the femoral arteries was next infiltrated with 1% lidocaine (Astra Pharmaceuticals, Inc., Westborough, Mass.) and the common femoral arteries were exposed from the inguinal ligament to the superficial femoral artery. Arteries were cleared of connective tissue, side branches were ligated, and the superficial femoral artery was suspended with silk ties. A 1.5-to-2.0 cm length of femoral artery was isolated from the circulation proximally and distally with neurosurgical microaneurysm clips. The superficial femoral-artery was cannulated with a 2F Fogarty balloon catheter (American Edwards Laboratories, Santa Ana, Calif.) that was passed into the isolated segment of femoral artery. The balloon was inflated with sufficient air to generate slight resistance and withdrawn three times. A 20 g angiocath was then inserted in the arteriotomy and 1 ml of 25.8 mg/ml PS-NO-BSA or 49.2 mg/ml S-NO-BSA was administered over 15 minutes. The contralateral femoral artery was prepared identically and an appropriate control (25.8 mglml pS-BSA, 49.2 mg/ml BSA or 0.66 mg/ml sodium nitroprusside) was administered. For binding studies, 0.5 ml of [^125I]-labeled nitrosylated albumin or control was administered. Following administration of the agent, the superficial femoral artery was ligated and flow reestablished. Sham-operated animals underwent surgical exposure and sidebranch ligation, but no balloon injury was performed or local delivery administered. The area of balloon injury was marked by surgical staples in the adjacent muscle fascia. For chronic studies, the incision was closed with subcuticular absorbable suture and the animals allowed to recover. For acute studies, blood was allowed to circulate through the treated areas for 15 minutes prior to vessel harvest. In some experiments, a distant control vessel, the right carotid artery, was isolated and harvested without any other manipulation.
A 7F plastic cannula was inserted into the abdominal aorta and the vessels perfused clear with saline followed by fixation at 100 mm Hg pressure with 10% buffered formalin. The vessels were stored in 10% buffered formalin and the samples paraffin-embedded and microtome-sectioned. […]

[4] = system: proliferating cell nuclear antigen; assay: PCNA staining of proliferating cells 7 days after balloon injury; format: in vivo, rabbit; settings: 7 days after injury
Experimental: In a separate set of animals, vessels were perfusion-fixed with 10% buffered formalin seven days after injury and processed for analysis of proliferating cells within 12 hours as described above. Sections were stained for proliferating cell nuclear antigen and adjacent sections were stained with hematoxylin and eosin. Five representative sections from each segment were examined. Total nuclei were counted from the hematoxylin and eosin slides and percent PCNA positive cells were defined as the number of PCNA-positive nuclei divided by the total number of nuclei multiplied by 100.

platelet cGMP = assay: Platelet cGMP in platelet-rich plasma exposed ex vivo to treated vessel rings; format: cell-based, human; settings: one-minute exposure of PRP to treated vessel rings, 10 μM isobutylmethylxanthine, n=14
Experimental: Rabbit femoral arteries were isolated and balloon-injured as described with reference to FIG. 4. After paired local administration of polythiolated S-nitroso-albumin and polythiolated albumin for 15 minutes, the vessels were harvested and divided into 2 mm rings. The rings were then immersed in 100 μl of platelet-rich plasma containing 10 μM 3-isobutyl-1-methylxanthine and were incubated for 1 minute ex-vivo. An equal volume of ice-cold 10% trichloroacetic acid was added to each aliquot and the sample vortexed. Platelet cGMP assay was then performed as described in “Methods.” Data are expressed as mean +/− SEM. *P<0.05.
cGMP analysis: Whole blood was obtained from fasting human volunteers and platelet-rich plasma (PRP) was prepared by centrifugation. Platelet counts were determined using a Coulter counter model ZM (Coulter Diagnostics, Hileah, Fla.). After balloon injury and treatment with pS-NO-BSA or PS-BSA, arterial segments were harvested and 2-mm segments were incubated with 100 μl of PRP containing 10 μM isobutylmethylxanthine. After 1 minute, an equal volume of ice-cold 10% trichloroacetic acid was added to each aliquot and the sample vortexed. Enzyme-linked immunoassay of cGMP was then performed (Cayman Chemical Company, Ann Arbor, Mich.). […]

vessel cGMP = assay: Vessel tissue cGMP after local treatment of balloon-injured artery; format: in vivo, rabbit; settings: treated balloon-injured vessel segments, n=3
Experimental: cGMP analysis: Whole blood was obtained from fasting human volunteers and platelet-rich plasma (PRP) was prepared by centrifugation. Platelet counts were determined using a Coulter counter model ZM (Coulter Diagnostics, Hileah, Fla.). After balloon injury and treatment with pS-NO-BSA or PS-BSA, arterial segments were harvested and 2-mm segments were incubated with 100 μl of PRP containing 10 μM isobutylmethylxanthine. After 1 minute, an equal volume of ice-cold 10% trichloroacetic acid was added to each aliquot and the sample vortexed. Enzyme-linked immunoassay of cGMP was then performed (Cayman Chemical Company, Ann Arbor, Mich.). Separate 2 mm vessel segments were also assayed for tissue CGMP after treatment with ice-cold 10% trichloroacetic acid and sonication (Heat Systems-Utrasonics, Inc., Plainview, N.Y.).

[5] = 14 days after balloon injury, local delivery 15 minutes
[6] = 14 days after balloon injury, n=7

| Substance | binding to injured femoral artery, local delivery ([1]; applied directly into injured artery, 15 minutes flow, n=4) | binding to injured femoral artery, systemic delivery ([1]; injected intraarterially via opposite femoral artery, 15 minutes flow, n=4) | increase in binding, local vs systemic delivery ([1]; injured femoral artery) [fold] | adhesion of [^111In]-labelled platelets to injured vessels [2] | neointima/media ratio ([3]; 7 days after injury, n=5) | neointimal area ([3]; 7 days after injury, n=5) | neointima/media ratio [3, 5] | neointimal area [3, 5] | percent of proliferating (PCNA positive) cells [4] [% +/−5.9] | platelet cGMP (platelet cGMP) | vessel cGMP levels (vessel cGMP) | reduction of platelet adhesion compared to control ([2]; local administration, injured femoral artery) | reduction of neointima/media ratio vs control [3, 6] [%] | reduction of neointimal area vs control [3, 6] [%] |
| --- | --- | --- | --- | --- | --- | --- | --- | --- | --- | --- | --- | --- | --- | --- |
| [^125I]-S-NO-BSA: [125I]-labeled S-nitroso-albumin used for binding studies | 140.4+/−3.9 ×10^3 cpm/gm | 5.4+/−0.9 ×10^3 cpm/gm | 26 |  |  |  |  |  |  |  |  |  |  |  |
| pS-BSA: thiolated bovine serum albumin, non-nitrosylated control for pS-NO-BSA [reference compound] |  |  |  | 71.3+/−40.4 ×10^3 cpm/gm | 0.068±0.027 | 0.258+/−0.19 ×10^5 μm^2 | 0.85+/−0.122 | 2.24+/−0.328 ×10^5 μm^2 | 30.1 | 4.11+/−0.9 pmol 10^8 platelets | 0.283+/−0.23 pmol/mg protein |  |  |  |
| pS-NO-BSA: polythiolated S-nitroso-albumin; thiolated BSA nitrosylated with NaNO2 in HCl |  |  |  | 16.3+/−6.2 ×10^3 cpm/gm | 0.032±0.005 | 0.124±0.06 ×10^5 μm^2 | 0.196 +/−0.66 | 0.41+/−0.11 ×10^5 μm^2 | 37.8 | 19.9+/−3.3 pmol 10^8 platelets | 0.48+/−0.46 pmol/mg protein | over four-fold | 77 | 81 |
